Key:
Assay in all cases: relative viability (nuclei count vs DMSO), 5 days (fraction); higher = more cells survive
[1] = compound: CCN(CCO)CCCC(C)Nc1ccnc2cc(Cl)ccc12 [Hydroxychloroquine] + Nc1nc2[nH]cc(CCc3ccc(C(=O)N[C@@H](CCC(=O)O)C(=O)O)cc3)c2c(=O)[nH]1 [Pemetrexed] (partner 0.2 µM)
Method in brief: (§1)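 One day after seeding in 1536-well plates, lung cancer cell lines were dosed by pin tool. Dosing was either single-drug or a fixed anchor-drug dose plus five library-drug doses (not always all listed) in √10 steps. After 5 days, nuclei were stained in one fix-and-stain step and counted on 4× images, and relative viability is the nuclei count of treated wells over that of vehicle wells, given as the median of duplicate plates.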

[2] = compound: CCN(CCO)CCCC(C)Nc1ccnc2cc(Cl)ccc12 [Hydroxychloroquine] + CS(=O)(=O)CCNCc1ccc(-c2ccc3ncnc(Nc4ccc(OCc5cccc(F)c5)c(Cl)c4)c3c2)o1 [Lapatinib] (partner 2 µM)
Method in brief: as §1

[3] = compound: CCN(CCO)CCCC(C)Nc1ccnc2cc(Cl)ccc12 [Hydroxychloroquine] + C[C@@H](Oc1cc(-c2cnn(C3CCNCC3)c2)cnc1N)c1c(Cl)ccc(F)c1Cl [Crizotinib] (partner 1 µM)
Method in brief: as §1

[4] = compound: CCN(CCO)CCCC(C)Nc1ccnc2cc(Cl)ccc12 [Hydroxychloroquine] + Cc1nc(Nc2ncc(C(=O)Nc3c(C)cccc3Cl)s2)cc(N2CCN(CCO)CC2)n1 [Dasatinib] (partner 0.075 µM)
Method in brief: as §1

| Cell Line | relative viability ([1]; first compound 0.5 µM) | relative viability ([1]; first compound 1.581 µM) | relative viability ([1]; first compound 5 µM) | relative viability ([1]; first compound 15.81 µM) | relative viability ([1]; first compound 50 µM) | relative viability ([2]; first compound 0.5 µM) | relative viability ([2]; first compound 1.581 µM) | relative viability ([2]; first compound 5 µM) | relative viability ([2]; first compound 15.81 µM) | relative viability ([2]; first compound 50 µM) | relative viability ([3]; first compound 0.5 µM) | relative viability ([3]; first compound 1.581 µM) | relative viability ([3]; first compound 5 µM) | relative viability ([3]; first compound 15.81 µM) | relative viability ([3]; first compound 50 µM) | relative viability ([4]; first compound 0.5 µM) | relative viability ([4]; first compound 1.581 µM) | relative viability ([4]; first compound 5 µM) | relative viability ([4]; first compound 15.81 µM) | relative viability ([4]; first compound 50 µM) |
| --- | --- | --- | --- | --- | --- | --- | --- | --- | --- | --- | --- | --- | --- | --- | --- | --- | --- | --- | --- | --- |
| LCLC-97TM1 | 0.199 | 0.226 | 0.169 | 0.179 | 0.175 | 0.926 | 1.27 | 0.928 | 1.1 | 1.03 | 0.379 | 0.259 | 0.4 | 0.449 | 0.481 | 0.866 | 0.896 | 0.903 | 0.841 | 0.808 |
| HARA | 0.286 | 0.231 | 0.233 | 0.263 | 0.251 | 0.712 | 0.731 | 0.597 | 0.765 | 0.635 | 1.13 | 1.31 | 1.05 | 1.02 | 1.04 | 0.287 | 0.262 | 0.253 | 0.29 | 0.299 |
| HCC-78 | 0.927 | 0.973 | 0.902 | 0.891 | 0.959 | 1.29 | 0.706 | 0.492 | 0.746 | 0.764 | 0.349 | 0.325 | 0.338 | 0.314 | 0.358 | 0.529 | 0.421 | 0.495 | 0.374 | 0.375 |
| NCI-H1666 | 0.878 | 0.765 | 0.846 | 0.755 | 0.844 | 0.572 | 0.483 | 0.681 | 0.61 | 0.538 | 0.872 | 1.11 | 0.948 | 0.837 | 1.14 | 0.845 | 0.771 | 0.815 | 0.793 | 0.765 |
| NCI-H2347 | 0.481 | 0.401 | 0.444 | 0.413 | 0.452 | 0.882 | 0.842 | 1.09 | 0.922 | 0.958 | 0.887 | 0.588 | 0.544 | 0.728 | 0.85 | 0.281 | 0.149 | 0.325 | 0.281 | 0.274 |
| PC-14 | 0.149 | 0.145 | 0.118 | 0.142 | 0.129 | 0.348 | 0.354 | 0.291 | 0.306 | 0.292 | 0.856 | 0.917 | 0.919 | 0.907 | 0.916 | 0.232 | 0.199 | 0.253 | 0.213 | 0.29 |
| NCI-H2023 | 0.267 | 0.22 | 0.246 | 0.238 | 0.295 | 0.793 | 0.652 | 0.691 | 0.905 | 0.994 | 0.652 | 0.565 | 0.619 | 0.614 | 0.737 | 0.624 | 0.478 | 0.563 | 0.542 | 0.617 |
| 201T | 0.346 | 0.331 | 0.338 | 0.307 | 0.339 | 1.05 | 1.02 | 1.02 | 1.02 | 1.05 | 1.02 | 1 | 1.07 | 0.978 | 0.821 | 0.582 | 0.578 | 0.598 | 0.606 | 0.608 |
| NCI-H1915 | 0.531 | 0.514 | 0.505 | 0.524 | 0.521 | 0.958 | 0.91 | 1 | 1.07 | 1.02 | 0.953 | 0.935 | 0.937 | 0.982 | 1.01 | 0.337 | 0.281 | 0.305 | 0.331 | 0.305 |
| NCI-H2009 | 1.07 | 0.991 | 1.02 | 1.07 | 1.01 | 0.909 | 0.826 | 0.874 | 0.898 | 0.893 | 1.02 | 1 | 1.06 | 1.05 | 1.08 | 0.326 | 0.253 | 0.312 | 0.298 | 0.329 |
| BEN | 0.928 | 0.719 | 0.733 | 0.855 | 0.684 | 0.704 | 0.553 | 0.609 | 0.707 | 0.891 | 0.848 | 0.728 | 0.863 | 0.947 | 1.01 | 0.273 | 0.332 | 0.316 | 0.267 | 0.331 |
| PC-3 [JPC-3] | 1.09 | 1.2 | 1.01 | 0.323 | 0.842 | 0.485 | 0.423 | 0.421 | 0.46 | 0.501 | 0.999 | 1 | 1.06 | 0.98 | 1.16 | 0.94 | 0.873 | 0.971 | 1.21 | 1.16 |
| SK-MES-1 | 1.03 | 0.73 | 1.02 | 1.05 | 0.945 | 0.515 | 0.418 | 0.487 | 0.472 | 0.449 | 0.933 | 0.955 | 1.13 | 1.1 | 1.03 | 0.342 | 0.306 | 0.388 | 0.37 | 0.339 |

From the supplement of paper PMC10307832
